Laboratory results from patent US20250049754A1, “COMPOSITIONS COMPRISING UROLITHIN FOR TREATING MUSCLE DECLINE AND A KIDNEY DYSFUNCTION” (SOCIETE DES PRODUITS NESTLE S.A., priority 2021, published 2025).

Legend:
Format in all cases: in vivo
db/db mouse [1] = assay: Whole body composition (lean mass) by EchoMRI in db/db mice; conditions: 50 mg/kg/day oral gavage, 10 weeks, vs db/db+V group
Protocol: The lean mass of muscles was measured using EchoMRI. Mice were purchased from The Jackson Laboratory (Stock No: 000642) in order to obtain sizeable cohorts to run groups in tandem, which is crucial for reliable testing of mitochondrial function. Eight to nine week-old male db/db mice (n=15 per group) received Urolithin A by oral gavage (50 mg/kg/day) for a duration of 10 weeks. Db/m (control) or db/db (diabetic) mice were randomized to the following treatments: A suspension of 0.5% carboxymethylcellulose (CMC; Sigma #419303) was first prepared. Urolithin A (16.67 mg/ml) was prepared by dissolving in 0.5% CMC solution and left stirring at room temperature. Urolithin A was dosed at 50 mg/kg/day. The weights of the mice were used to calculate the dosage of Urolithin A to be administered to each mouse, based on weekly bodyweight measurements. Approximately 1001 of 0.5% CMC was given to mice daily in the vehicle groups. At baseline, mid-point and one week prior to euthanasia, mice underwent metabolic caging for 24 hours to collect urine and to measure food and water intake. […] Fasting plasma glucose was measured using a glucose colorimetric assay kit (Cayman, Ann Arbor, USA) at baseline, 15 min and 60 min after glucose treatment. […] Whole body composition including lean mass and fat mass were measured using EchoMRI at baseline, midpoint and endpoint.

db/db mouse [2] = assay: Urinary carnosine, anserine and S-adenosylmethionine, semi-quantitative, HILIC chromatography and ESI-orbitrap mass spectrometry, in db/db mice; conditions: 50 mg/kg/day oral gavage, 10 weeks, vs db/db+V group
Protocol: Urinary carnosine was determined in a semi-quantitative manner using cold methanol:water:chloroform (5:3:5 (v/v)) extraction to separate the polar metabolites and apolar metabolites. In addition, a protein layer remained in the middle between the two phases. The polar phase was dried overnight in a vacuum centrifuge at 4° C. and 5 mbar, and was dissolved in 60 μl 60% (v/v) acetonitrile:water prior to analysis. The protein layer was quantified with a bicinchoninic acid (BCA) assay (ThermoFisher Scientific) and used for later normalization of the metabolite concentrations. Two microliters of each sample were injected into a hydrophilic interaction chromatography (HILIC) analytical column. The separation was achieved by applying a linear solvent gradient. As mobile phase, solvent A was H2O with 10 mM ammonium acetate (NH4Ac) and 0.04% (v/v) ammonium hydroxide (NH4OH), pH ˜9.3, and solvent B was acetonitrile (ACN). The eluting metabolites, including carnosine, were analyzed with an orbitrap mass spectrometer (Orbitrap Fusion Lumos Tribrid, Thermo Scientific) equipped with a heated electrospray ionisation (H-ESI) source. […]
Urinary anserine was determined in a semi-quantitative manner using cold methanol:water:chloroform (5:3:5 (v/v)) extraction to separate the polar metabolites and apolar metabolites. […] The protein layer was quantified with a bicinchoninic acid (BCA) assay (ThermoFisher Scientific) and used for later normalization of the metabolite concentrations. […] The eluting metabolites, including anserine, were analyzed with an orbitrap mass spectrometer (Orbitrap Fusion Lumos Tribrid, Thermo Scientific) equipped with a heated electrospray ionization (H-ESI) source. […]
Urinary S-adenosylmethionine was determined in a semi-quantitative manner using cold methanol:water:chloroform (5:3:5 (v/v)) extraction to separate the polar metabolites and apolar metabolites. […] The protein layer was quantified with a bicinchoninic acid (BCA) assay (ThermoFisher Scientific) and used for later normalization of the metabolite concentrations. […]

db/db mouse [3] = assay: Kidney function in the db/db mouse model of type 2 diabetes: urine albumin (ELISA), urinary creatinine (Cobas Integra), 24-hour metabolic caging; conditions: db/db mice, 50 mg/kg/day oral gavage; for albumin/creatinine ratio: vs db/db+V group
Protocol: Creatinine was determined using a Cobas Integra autoanalyzer. Excretion of urine albumin was measured by ELISA kit.
Urinary creatinine was determined using a Cobas Integra autoanalyzer.
Excretion of urine albumin was measured by ELISA kit.
The renoprotective effects of Urolithin A were assessed in a mouse model of type 2 diabetes (the db/db mouse).
A mouse model of diabetes was used endorsed by the Diabetic Complications Consortium (DiabComp/AMDCC), the db/db mouse model, which is obese and insulin resistant “type 2”.
Mice were purchased from The Jackson Laboratory (Stock No: 000642) in order to obtain sizeable cohorts to run groups in tandem, which is crucial for reliable testing of mitochondrial function. Eight to nine week-old male db/db mice (n=15 per group) received Urolithin A by oral gavage (50 mg/kg/day) for a duration of 10 weeks. Db/m (control) or db/db (diabetic) mice were randomized to the following treatments:
A suspension of 0.5% carboxymethylcellulose (CMC; Sigma #419303) was first prepared. Urolithin A (16.67 mg/ml) was prepared by dissolving in 0.5% CMC solution and left stirring at room temperature. Urolithin A was dosed at 50 mg/kg/day. The weights of the mice were used to calculate the dosage of Urolithin A to be administered to each mouse, based on weekly bodyweight measurements. Approximately 1001 of 0.5% CMC was given to mice daily in the vehicle groups.
At baseline, mid-point and one week prior to euthanasia, mice underwent metabolic caging for 24 hours to collect urine and to measure food and water intake. Body composition by EchoMRI was performed at baseline, mid-point and two weeks prior to euthanasia to determine fat mass and lean body mass. At baseline and week 9, an oral glucose tolerance test was performed to assess glucose handling. Fasting plasma glucose was measured using a glucose colorimetric assay kit (Cayman, Ann Arbor, USA) at baseline, 15 min and 60 min after glucose treatment. Blood pressure measurements were performed at week 10.
All analyses were performed by ANOVA followed by post hoc paired analysis using Tukey's least significant difference method, correcting for multiple comparisons. A value for p<0.05 was considered as statistically significant. A Z-score of 2 was used to exclude outliers.
One week prior to cull, 24-hour metabolic caging was performed to collect urine, and blood was collected from the submandibular vein. Urine and plasma creatinine was determined using the Cobas Integra autoanalyzer. Urine albumin was measured by ELISA (Bethyl, USA). Blood pressure was determined by tail cuff plethysmography.
Excretion of albumin in the urine over a 24-hour period was measured by ELISA kit (Bethyl). At the endpoint of the study, there was a significant increase in albuminuria in db/db mice when compared to db/m mice. […] Creatinine clearance was calculated from urine and plasma creatinine measured using the Creatinine plus ver.2 (CREP2) assay on a Cobas Integra 400 plus autoanalyzer (Roche Diagnostics). There was a decline in kidney function in db/db mice (Diabetic) as measured by an increase in albuminuria and reduced creatinine clearance at 18-19 weeks of age. Treatment of UA delayed the progression of albuminuria in the db/db mice.

db/db mouse [4] = assay: Femur bone mass by weighing in db/db mice; conditions: 50 mg/kg/day oral gavage, 10 week treatment, vs db/db+V group
Protocol: The bone femur mass was determined by weighing on a precision scale. Mice were purchased from The Jackson Laboratory (Stock No: 000642) in order to obtain sizeable cohorts to run groups in tandem, which is crucial for reliable testing of mitochondrial function. Eight to nine week-old male db/db mice (n=15 per group) received Urolithin A by oral gavage (50 mg/kg/day) for a duration of 10 weeks. Db/m (control) or db/db (diabetic) mice were randomized to the following treatments: A suspension of 0.5% carboxymethylcellulose (CMC; Sigma #419303) was first prepared. Urolithin A (16.67 mg/ml) was prepared by dissolving in 0.5% CMC solution and left stirring at room temperature. Urolithin A was dosed at 50 mg/kg/day. The weights of the mice were used to calculate the dosage of Urolithin A to be administered to each mouse, based on weekly bodyweight measurements. Approximately 1001 of 0.5% CMC was given to mice daily in the vehicle groups. All analyses were performed by ANOVA followed by post hoc paired analysis using Tukey's least significant difference method, correcting for multiple comparisons. A value for p<0.05 was considered as statistically significant. A Z-score of 2 was used to exclude outliers. Left and right femur bones were collected at the end of study, after 10 week treatment, and both femurs were cleaned and snap frozen, weighed and stored at −80° C.

db/db mouse [5] = assay: Muscle mass of tibialis anterior and quadriceps by weighing in db/db mice; conditions: 50 mg/kg/day oral gavage, 10 weeks, vs db/db+V group
Protocol: The muscle mass of the tibialis anterior was measured by weighing on a precision scale. […] The muscle mass of the quadriceps was measured by weighing on a precision scale. Mice were purchased from The Jackson Laboratory (Stock No: 000642) in order to obtain sizeable cohorts to run groups in tandem, which is crucial for reliable testing of mitochondrial function. Eight to nine week-old male db/db mice (n=15 per group) received Urolithin A by oral gavage (50 mg/kg/day) for a duration of 10 weeks. Db/m (control) or db/db (diabetic) mice were randomized to the following treatments: A suspension of 0.5% carboxymethylcellulose (CMC; Sigma #419303) was first prepared. Urolithin A (16.67 mg/ml) was prepared by dissolving in 0.5% CMC solution and left stirring at room temperature. Urolithin A was dosed at 50 mg/kg/day. The weights of the mice were used to calculate the dosage of Urolithin A to be administered to each mouse, based on weekly bodyweight measurements. Approximately 1001 of 0.5% CMC was given to mice daily in the vehicle groups. All analyses were performed by ANOVA followed by post hoc paired analysis using Tukey's least significant difference method, correcting for multiple comparisons. A value for p<0.05 was considered as statistically significant. […] Whole body composition including lean mass and fat mass were measured using EchoMRI at baseline, midpoint and endpoint. […]

O=c1oc2cc(O)ccc2c2ccc(O)cc12 [UA, 3,8-dihydroxyurolithin]
lean mass (db/db mouse [1]): significantly increased | levels of urinary S-adenosylmethionine (SAM) (db/db mouse [2]): significantly increased | levels of urinary anserine (db/db mouse [2]): significantly increased | levels of urinary carnosine (db/db mouse [2]): significantly increased | urinary creatinine (db/db mouse [3]; 10 weeks, vs vehicle-treated group): higher | albumin/creatinine ratio (db/db mouse [3]; after 5 weeks of treatment (midpoint)): significantly decreased | albumin/creatinine ratio (db/db mouse [3]; after 10 weeks of treatment (endpoint)): significantly decreased | albuminuria (24-hour urine albumin excretion) (db/db mouse [3]; at midpoint (5 weeks)): did affect albuminuria | progression of albuminuria (db/db mouse [3]; baseline to 10 weeks, vs vehicle-treated counterparts): significantly delayed | femur bone mass (db/db mouse [4]): significantly increased | muscle mass of the quadriceps (db/db mouse [5]): significantly increased | muscle mass of the tibialis anterior (db/db mouse [5]): significantly increased
